Data published in patent US11000033B2, “Ketone or oxime compound, and herbicide” (NISSAN CHEMICAL CORPORATION, priority 2014, dated 2021).

Assays:
Type in all cases: in vivo
[1] = system: Echinochloa oryzacola Vasing.; assay: Test Example 1: herbicidal activity, application before weed generation in submerged conditions (symbol A); conditions: application herbicide amount 320 g/ha
Outline: (§1)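 Scores run 0 to 5 by herbicidal ratio, with 5 meaning 90% or more and 0 meaning 5% or lower, read 3 weeks after treatment. Compound was applied as a diluted emulsion to the water surface of submerged alluvial-soil pots on the day weed seeds were sown.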

Scirpus juncoides = assay: Test Example 1: herbicidal activity, application before weed generation in submerged conditions (symbol B); conditions: application herbicide amount 320 g/ha
Outline: as §1

Monochoria vaginalis = assay: Test Example 1: herbicidal activity, application before weed generation in submerged conditions (symbol C); conditions: application herbicide amount 320 g/ha
Outline: as §1

Cyperus difformis = assay: Test Example 3: herbicidal effect by foliage application, Wagner pot (symbol E); conditions: application herbicide amount 320 g/ha, Table 24
Outline: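 Seeds sown in alluvial soil kept under 0.1–0.5 cm water, greenhouse 25–30 °C; 14 d growth. Leaves treated by small sprayer with water-diluted emulsion at a predetermined rate. Effect graded by set scale, 3 weeks.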

[2] = system: directly sowed rice plant; assay: Test Example 3: effect on crop by foliage application, Wagner pot (symbol b); conditions: application herbicide amount 320 g/ha, Table 24
Outline: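 Alluvial soil in a 1/10000-are Wagner pot was flooded to a water depth of 0.1–0.5 cm. Echinochloa crus-galli var. crus-galli, Leptochloa chinensis, Cyperus difformis and rice were sown into it and grown in a greenhouse at 25–30 °C.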

[3] = system: Echinochloa crus-galli var. crus-galli; assay: Test Example 4: herbicidal effect by soil treatment (symbol H); conditions: application herbicide amount 320 g/ha
Outline: (§2)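 Seeds were sown in sterilized diluvial soil, covered with about 1.5 cm of soil, and the soil surface was sprayed with a water-diluted emulsion of the compound at a predetermined rate. Plants grew in a greenhouse at 25° C. to 30° C.; effects were scored visually 3 weeks after application.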

Amaranthus retroflexus [4] = assay: Test Example 4: herbicidal effect by soil treatment (symbol N); conditions: application herbicide amount 320 g/ha
Outline: as §2

Stellaria media = assay: Test Example 4: herbicidal effect by soil treatment (symbol P); conditions: application herbicide amount 320 g/ha
Outline: as §2

corn = assay: Test Example 4: effect on crop by soil treatment (symbol c); conditions: application herbicide amount 320 g/ha
Outline: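 Seeds were sown in spots on sterilized diluvial soil in a plastic box and covered with about 1.5 cm of soil. Plants were then grown in a greenhouse at 25° C. to 30° C.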

rice = assay: Test Example 4: effect on crop by soil treatment (symbol b); conditions: application herbicide amount 320 g/ha
Outline: (§3)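 Steps: fill box with sterilized diluvial soil; sow seed spot-like; cover with ~1.5 cm soil; grow in greenhouse (25° C. to 30° C.).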

rapeseed [5] = assay: Test Example 4: effect on crop by soil treatment (symbol g); conditions: application herbicide amount 320 g/ha
Outline: as §3

Setaria viridis = assay: Test Example 5: herbicidal effect by foliage application, plastic box (symbol G); conditions: 320 g/ha, 3 weeks after application
Outline: (§4)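 Seeds were sown in sterilized diluvial soil, covered with about 1.5 cm of soil and grown 14 days in a greenhouse at 25° C. to 30° C. An emulsifiable formulation diluted in water to a set rate was sprayed over foliage, and injury was scored 3 weeks later.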

[6] = system: Echinochloa crus-galli var. crus-galli; assay: Test Example 5: herbicidal effect by foliage application, plastic box (symbol H); conditions: 320 g/ha, 3 weeks after application
Outline: as §4

Amaranthus retroflexus [7] = assay: Test Example 5: herbicidal effect by foliage application, plastic box (symbol N); conditions: 320 g/ha, 3 weeks after application
Outline: as §4

beet = assay: Test Example 5: effect on crop by foliage application, plastic box (symbol f); conditions: 320 g/ha, 3 weeks after application
Outline: (§5)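 A greenhouse held between 25° C. and 30° C. was used to grow plants sown spot-wise, beneath ~1.5 cm of soil, in boxes of sterilized diluvial soil.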

rapeseed [8] = assay: Test Example 5: effect on crop by foliage application, plastic box (symbol g); conditions: 320 g/ha, 3 weeks after application
Outline: as §5

SMILES	A (Echinochloa oryzacola Vasing.) herbicidal effect grade [1]	B (Scirpus juncoides) herbicidal effect grade (Scirpus juncoides)	C (Monochoria vaginalis) herbicidal effect grade (Monochoria vaginalis)	E herbicidal effect grade (Cyperus difformis)	b (directly sowed rice plant) effect on crop grade [2]	Herbicidal effect grade, H: Echinochloa crus-galli var. crus-galli [3]	Herbicidal effect grade, N: Amaranthus retroflexus (Amaranthus retroflexus [4])	Herbicidal effect grade, P: Stellaria media (Stellaria media)	Effect on crop grade, c: corn (corn)	Effect on crop grade, b: directly sowed rice plant (rice)	Effect on crop grade, g: rapeseed (rapeseed [5])	G: Setaria viridis, herbicidal effect grade (Setaria viridis)	H: Echinochloa crus-galli var. crus-galli, herbicidal effect grade [6]	N: Amaranthus retroflexus, herbicidal effect grade (Amaranthus retroflexus [7])	f: beet, effect on crop grade (beet)	g: rapeseed, effect on crop grade (rapeseed [8])
COCCON=C(CC1CC(O)=C(c2c(C)cc(-n3cc(Cl)cn3)cc2C)C1=O)C(C)C (stereo not drawn) [9-022]	5 (Herbicidal ratio of 90% or more (almost completely withered))	3 (Herbicidal ratio of 40% or higher and lower than 70%)	0 (Herbicidal ratio of 5% or lower (almost no effect))	5 (Herbicidal ratio of 90% or more (almost completely withered))	5 (Herbicidal ratio of 90% or more (almost completely withered))	5 (Herbicidal ratio of 90% or more (almost completely withered))	0 (Herbicidal ratio of 5% or lower (almost no effect))	0 (Herbicidal ratio of 5% or lower (almost no effect))	1 (Herbicidal ratio of 5% or higher and lower than 20%)	4 (Herbicidal ratio of 70% or higher and lower than 90%)	0 (Herbicidal ratio of 5% or lower (almost no effect))	5 (Herbicidal ratio of 90% or more (almost completely withered))	5 (Herbicidal ratio of 90% or more (almost completely withered))	0 (Herbicidal ratio of 5% or lower (almost no effect))	0 (Herbicidal ratio of 5% or lower (almost no effect))	0 (Herbicidal ratio of 5% or lower (almost no effect))
CC#Cc1cc(C)c(C2=C(O)CC(CC(=NOCCOC)C(C)C)C2=O)c(C)c1 (stereo not drawn) [9-023]	5 (Herbicidal ratio of 90% or more (almost completely withered))	5 (Herbicidal ratio of 90% or more (almost completely withered))	4 (Herbicidal ratio of 70% or higher and lower than 90%)	5 (Herbicidal ratio of 90% or more (almost completely withered))	5 (Herbicidal ratio of 90% or more (almost completely withered))	5 (Herbicidal ratio of 90% or more (almost completely withered))	5 (Herbicidal ratio of 90% or more (almost completely withered))	0 (Herbicidal ratio of 5% or lower (almost no effect))	3 (Herbicidal ratio of 40% or higher and lower than 70%)	5 (Herbicidal ratio of 90% or more (almost completely withered))	4 (Herbicidal ratio of 70% or higher and lower than 90%)	5 (Herbicidal ratio of 90% or more (almost completely withered))	5 (Herbicidal ratio of 90% or more (almost completely withered))	0 (Herbicidal ratio of 5% or lower (almost no effect))	0 (Herbicidal ratio of 5% or lower (almost no effect))	5 (Herbicidal ratio of 90% or more (almost completely withered))
CC(CC1CC(O)=C(c2c(C)cc(-c3ccc(Cl)cc3)cc2C)C1=O)=NOCC(F)(F)F (stereo not drawn) [9-024]	5 (Herbicidal ratio of 90% or more (almost completely withered))	4 (Herbicidal ratio of 70% or higher and lower than 90%)	2 (Herbicidal ratio of 20% or higher and lower than 40%)	5 (Herbicidal ratio of 90% or more (almost completely withered))	5 (Herbicidal ratio of 90% or more (almost completely withered))	5 (Herbicidal ratio of 90% or more (almost completely withered))	3 (Herbicidal ratio of 40% or higher and lower than 70%)	4 (Herbicidal ratio of 70% or higher and lower than 90%)	0 (Herbicidal ratio of 5% or lower (almost no effect))	5 (Herbicidal ratio of 90% or more (almost completely withered))	0 (Herbicidal ratio of 5% or lower (almost no effect))	5 (Herbicidal ratio of 90% or more (almost completely withered))	5 (Herbicidal ratio of 90% or more (almost completely withered))	1 (Herbicidal ratio of 5% or higher and lower than 20%)	0 (Herbicidal ratio of 5% or lower (almost no effect))	4 (Herbicidal ratio of 70% or higher and lower than 90%)
